In patent US20240165152A1, “COMPOSITIONS AND METHODS FOR ACTIVATING NK CELLS” (The Regents of the University of California, priority 2017, published 2024):

Assays:
OSCSCs = assay: Cell death (PI staining) of OSCSCs differentiated with NK supernatants after chemotherapeutic drugs; format: cell-based, human
Experimental: FIG. 67A-FIG. 67B show CDDP or Paclitaxel with and without NAC induce significant cell death in OSCSCs differentiated with NK-supernatants and not in poorly-differentiated tumors. Highly purified NK cells were treated with the combination of IL-2 (1000 U/mL) and anti-CD16 mAb ([…]) for 18 hours, after which the NK supernatants were added to OSCSCs in the presence of anti-TNF-a (1:100) and anti-IFN-g (1:100) for a period of 5 days. Thereafter, OSCSCs were detached and treated with/without Cisplatin for 18-24 hours. The viability of OSCSCs was then determined using PI staining and flow cytometric analysis. One of 3 representative experiments is shown in this figure (FIG. 67A). OSCSCs were treated with the supernatants from NK cells as described in FIG. 67A. Afterwards, tumors were detached and treated with/without NAC ([…]) for 24 hours, followed by treatment with Paclitaxel for 18-24 hours. OSCSCs viability was determined by PI staining and flow cytometric analysis. One of 3 representative experiments is shown in this figure (FIG. 67B).
Staining was performed by labeling the cells with antibodies or propidium iodide, as described previously. The cells were washed twice with ice-cold PBS containing 1% BSA. Predetermined optimal concentrations of specific human monoclonal antibodies were added to 1×10^4 cells in 50 pl of cold-BSA and cells were incubated on ice for 30 min. Thereafter cells were washed in cold PBS-BSA and brought to 500 pl with PBS-BSA. For cell death assay 1×10^4 cells in 50 pl of cold-BSA were stained with 8 µg/ml propidium iodide and cells were incubated on ice for 10 min, and brought to 500 pl with PBS-BSA. Flow cytometry analysis was performed using Beckman 485 Coulter Epics XL cytometer (Brea, CA) and results were analyzed in FlowJo vX software (Ashland, OR).
NK cells were treated with a combination of anti-CD16 monoclonal antibody (3 pg/mL) and IL-2 (1,000 U/mL) for 18 hours before supernatants were removed and used for differentiation experiments. The amounts of IFN-y produced by activated NK cells were measured with IFN-γ ELISA (Biolegend, CA, USA). […]

OSCCs = assay: Cell death of OSCCs after chemotherapeutic drugs; format: cell-based, human; conditions: patient-derived differentiated oral tumor

SMILES	cell death of OSCSCs differentiated with NK supernatants (OSCSCs)	cell death of OSCCs (OSCCs)
CC(=O)N[C@@H](CS)C(=O)O [NAC]	significantly increased	
CC(=O)O[C@H]1C(=O)[C@@]2(C)[C@H]([C@H](OC(=O)c3ccccc3)[C@]3(O)C[C@H](OC(=O)[C@H](O)[C@@H](NC(=O)c4ccccc4)c4ccccc4)C(C)=C1C3(C)C)[C@]1(OC(C)=O)CO[C@@H]1C[C@@H]2O [paclitaxel]	higher cell death	
[NH2][Pt]([NH2])([Cl])[Cl] [CDDP, Cisplatin]	significant susceptibility	higher cell death
